ChEMBL document CHEMBL5338765, “Discovery of Potent and Wild-Type-Sparing Fourth-Generation EGFR Inhibitors for Treatment of Osimertinib-Resistance NSCLC” (J Med Chem, 2023)

What was measured:
in vivo [1] = details: Sprague-Dawley, rat, po, 10 mg/kg
in vivo [2] = details: Sprague-Dawley, rat, iv, 1 mg/kg
in vivo [3] = details: Sprague-Dawley, rat, iv, 1 mg/kg; remark: listed apart in the source
in vivo [4] = details: Sprague-Dawley, rat, po, 10 mg/kg; remark: listed apart in the source
in vivo [5] = details: Sprague-Dawley, rat, iv, 1 mg/kg; remark: listed apart in the source
in vivo [6] = details: Sprague-Dawley, rat, po, 10 mg/kg; remark: listed apart in the source
in vivo [7] = details: Sprague-Dawley, rat, po, 10 mg/kg; remark: listed apart in the source
in vivo [8] = details: Sprague-Dawley, rat, iv, 1 mg/kg; remark: listed apart in the source
in vivo [9] = details: Sprague-Dawley, rat, iv, 1 mg/kg; remark: listed apart in the source
in vivo [10] = details: Sprague-Dawley, rat, po, 10 mg/kg; remark: listed apart in the source
in vivo [11] = details: Sprague-Dawley, rat, iv, 1 mg/kg; remark: listed apart in the source
in vivo [12] = details: Sprague-Dawley, rat, po, 10 mg/kg; remark: listed apart in the source
in vivo [13] = details: Sprague-Dawley, rat, po, 10 mg/kg; remark: listed apart in the source

Question: With CCS(=O)(=O)n1cc(-c2nc(Nc3ccc4c(ccn4CCN(C)C)c3)ncc2C(F)(F)F)c2ccccc21 as the molecule, how does the bioavailability at 24 h (in vivo [1]) read?
Answer: Its bioavailability at 24 h is 28.1%.

Question: What about the Tmax at 24 h (in vivo [2]) of the same molecule?
Answer: Its Tmax at 24 h is 4.8 min.

Question: And the Cmax at 24 h (in vivo [3])?
Answer: Its Cmax at 24 h is 130 ng/mL.

Question: What about the Cmax at 24 h (in vivo [4]) of the same molecule?
Answer: Its Cmax at 24 h is 54.7 ng/mL.

Question: And the MRT inf at 24 h (in vivo [5])?
Answer: Its MRT inf at 24 h is 4.33 h.

Question: What about the CL/F at 24 h (in vivo [6]) of the same molecule?
Answer: Its CL/F at 24 h is 278 mL/min/kg.

Question: What about the MRT inf at 24 h (in vivo [7]) of the same molecule?
Answer: The MRT inf at 24 h was 9.62 h.

Question: And the AUC(0-inf) at 24 h (in vivo [8])?
Answer: Its AUC(0-inf) at 24 h is 242 ng·h/mL.

Question: And the half-life at 24 h (in vivo [9])?
Answer: The half-life at 24 h was 3.67 h.

Question: And the Tmax at 24 h (in vivo [10])?
Answer: Its Tmax at 24 h is 8 h.

Question: What about the clearance at 24 h (in vivo [11]) of the same molecule?
Answer: Its clearance at 24 h is 70.2 mL/min/kg.

Question: What about the half-life at 24 h (in vivo [12]) of the same molecule?
Answer: The half-life at 24 h was 5.37 h.

Question: And the AUC(0-inf) at 24 h (in vivo [13])?
Answer: Its AUC(0-inf) at 24 h is 678 ng·h/mL.
